Data taken from PubChem BioAssay (NCI).
“And” between values parts separate entries of the source, which are not always exact repeats. Equal values may be shown once.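 Where inhibition never reached the appropriate level, the endpoint shown equals the highest concentration tested. Otherwise, values were interpolated linearly from a five-concentration, 48-hour dose response in 96-well plates. The concentration for 50% growth inhibition is given as GI50. TGI denotes the concentration required for complete inhibition of growth.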

Columns and labels:
Test in all cases: DTP human tumour cell line panel, 48 h
[1] = test system: SR leukemia
[2] = test system: A549 NSCLC
[3] = test system: MOLT-4 leukemia
[4] = test system: HCT-15 colon
[5] = test system: SK-MEL-5 melanoma
[6] = test system: HOP-62 NSCLC
[7] = test system: RXF 393 renal
[8] = test system: SW-620 colon
[9] = test system: NCI/ADR-RES ovarian

Row | SMILES | GI50 [1] | TGI [1] | GI50 [2] [µM] | TGI [2] [µM] | GI50 [3] [µM] | TGI [3] | GI50 [4] [µM] | TGI [4] [µM] | GI50 [5] [µM] | TGI [5] | GI50 [6] | TGI [6] | GI50 [7] | TGI [7] [µM] | GI50 [8] [µM] | TGI [8] | GI50 [9] [µM] | TGI [9] [µM]
1 | N.N.NCCCCN.O=C([O-])CC(=O)[O-].O=C([O-])CC(=O)[O-].[Pt+4].[Pt+4] | 30.4 µM | > 100 µM | > 100 | > 100 | 52.8 | > 100 µM | > 100 | > 100 | > 100 | > 100 µM | > 100 µM | > 100 µM | > 100 µM | > 100 | > 100 | > 100 µM | – | –
2 | O=C1C2c3[nH]c4ccccc4c3C3CCSCC3C2C(=O)N1c1ccccc1 (centres undefined) | – | – | – | > 100 | – | > 100 µM | – | > 100 | – | > 100 µM | – | > 100 µM | – | > 100 | – | > 100 µM | – | –
3 | COc1ccc(-c2nc3sccn3c2/C=C/C(=O)c2cc(OC)c(OC)c(OC)c2)cc1OC | 1.3 µM | 4.15 µM | 2.62 | 6.03 | 2.07 | 6.47 µM | 3.24 | > 100 | 1.54 | 2.99 µM | 2.58 µM | 6.68 µM | – | – | – | – | 2.27 | 5.98
4 | O=C(Nc1ccccc1)O/N=C1/CCCC/C1=C\c1ccccc1 | – | 43.6 µM | – | – | – | 26.5 µM | – | 23.4 | – | 25.6 µM | – | 40.4 µM | – | 32 | – | 29.9 µM | – | –
5 | C=CC[P@@]1(=O)O[C@H](c2ccccc2)C(C)N1C(C)C (some centres undefined) | – | > 100 µM | – | > 100 | – | > 100 µM | – | > 100 | – | > 100 µM | – | – | – | > 100 | – | > 100 µM | – | –
6 | CC1=CCP(C(F)(F)F)P(C(F)(F)F)C1 (centres undefined) | – | > 100 µM | – | > 100 | – | > 100 µM | – | > 100 | – | > 100 µM | – | > 100 µM | – | 58.3 | – | > 100 µM | – | –
7 | CC1(c2ccccc2)CC12C(=O)NC(=O)NC2=O (centres undefined) | – | > 100 µM | – | > 100 | – | > 100 µM | – | > 100 | – | > 100 µM | – | > 100 µM | – | – | – | > 100 µM | – | –
8 | Cc1c2cc[n+](C)cc2c(C)c2c1[nH]c1ccc(OC(C)C)cc12 | 2.34 µM and 9.55 µM | 10.5 µM and > 54.3 µM | – | > 100 | – | 20.4 µM and 17.1 µM | – | > 100 | – | 3.32 µM and 4.01 µM | 1.23 µM and 3.13 µM | 19.9 µM and 27.3 µM | 7.26 µM and 20.4 µM | > 100 | – | 37.9 µM and 21.3 µM | – | –
9 | COc1c2c(c(OC)c3c(=O)cc(C/C(=N/NC(=O)C[n+]4ccccc4)C(=O)Nc4cc(C)ccc4C)oc13)OCO2 | – | – | – | > 100 | – | > 100 µM | – | > 100 | – | > 100 µM | – | > 100 µM | – | > 100 | – | > 100 µM | – | –
10 | CC(C)(C)c1ccc(Oc2ccc(C#N)c(C#N)c2)c(C(C)(C)C)c1 | – | 40.3 µM | – | > 100 | – | 52.9 µM | – | 31.3 | – | > 100 µM | – | > 100 µM | – | > 95.7 | – | > 100 µM | – | –
11 | Brc1nc2c3ccccc3ncn2c1Br | – | > 100 µM | – | > 100 | – | 84.6 µM | – | > 100 | – | 39.3 µM | – | > 100 µM | – | 86.1 | – | > 100 µM | – | –
12 | CCOC(=O)c1[nH]c2cccc3c2c1CC(Br)C3=O (centres undefined) | – | 4.99 µM | – | 38.2 | – | 6.33 µM | – | 18.8 | – | 33.1 µM | – | 33.6 µM | – | – | – | 5.41 µM | – | 30.3
13 | COCC1N=C(c2ccc(OC)c(OCc3ccccc3)c2OC)O[C@H]1c1ccccc1 (some centres undefined) | – | – | – | > 100 | – | 23.3 µM | – | 94.5 | – | 25.7 µM | – | > 100 µM | – | 97.3 | – | > 100 µM | – | –
14 | CC(=O)CC(=O)CCCC(=O)Nc1ccc(Cl)cc1Cl | – | > 100 µM | – | > 100 | – | > 100 µM | – | > 100 | – | – | – | > 100 µM | – | – | – | > 100 µM | – | –
15 | CN(C)CCN1N=Nc2cccc3cccc1c23 | – | 40.2 µM | – | > 100 | – | > 87.3 µM | – | > 100 | – | > 100 µM | – | > 100 µM | – | – | – | > 53.6 µM | – | –
16 | Nc1ccc(CCN2CCN(c3cccc(C(F)(F)F)c3)CC2)cc1 | – | > 100 µM | – | > 100 | – | 89.7 µM | – | > 100 | – | > 100 µM | – | > 100 µM | – | > 100 | – | – | – | –
17 | CC1=C2C(=CC(C)(CO)C2O)C(=O)C(C)(O)C12CC2 (centres undefined) | – | 0.146 µM | – | 0.0902 | – | 0.0104 µM | – | 0.0462 | – | 0.0036 µM | – | 0.0147 µM | – | 0.00569 | – | 0.0585 µM | – | –
18 | O=[N+]([O-])c1ccc(OCCNc2cccc3ccccc23)cc1 | – | – | – | > 100 | – | > 100 µM | – | > 100 | – | > 100 µM | – | > 100 µM | – | – | – | > 100 µM | – | –
